Measured values published in US20250177381A1 (SHANGHAI YONSUN BIOTECHNOLOGY CO., LTD., priority 2022, published 2025).
Values after ≈ are worked out from the molar mass of the structure shown. Where a name gives a salt, the structure may show the parent alone. Read-outs that look alike come from different tables or passages of the source.

How the values were obtained:
Type in all cases: physicochemical
[1] = Solubility in media with different pH values; conditions: shaken 24 h; for Solubility pH 3 / Solubility pH 4 / Solubility pH 5 / Solubility pH 6: acetate buffer; for Solubility pH 3 / Solubility pH 4 / Solubility pH 5 / Solubility pH 6 / Solubility pH 7 / Solubility pH 7.4 / Solubility pH 8 / Solubility pH 9 / Solubility Water: 37° C.; for Solubility pH 7 / Solubility pH 7.4 / Solubility pH 8 / Solubility pH 9 / solubility at 24 h: phosphate buffer; for solubility at 24 h: 37 °C, thermodynamic from solid
Protocol: The mixtures were shaken at 37° C. for 24 h and filtered through a 0.45 μm aqueous-phase filter membranes. The filtrates were collected for solubility determination by high performance liquid chromatography. pH 3, pH 4, pH5 and pH 6 represent acetate buffer solutions, and pH 7, pH 7.4, pH 8 and pH 9 represent phosphate buffer solutions.

[2] = Hydrochloride dissociation study (XRPD of residues); conditions: aqueous media of pH 6, pH 7, pH 7.4, pH 8, pH 9; shaken at 37° C. for 4 h
Protocol: The mixtures were shaken at 37° C. for 4 h and centrifuged.

[3] = Crystal form stability of solid salt forms (XRPD); conditions: 60° C., Day 10, listed as crystal form A of cariprazine mono-1-hydroxy-2-naphthoate dihydrate
Protocol: (4) The XRPD measurements were conducted on a Bruker model D8 Advance X-ray powder diffractometer using a round zero background single crystal silicon sample stage. CuKα rays were used as a light source in the test, and the scanning parameters are as follows: voltage: 40 kv; current: 40 mA; scanning range: 3°-45°; scanning step size: 0.02°; scanning mode: continuous scanning.

[4] = listed as Crystal form A of cariprazine bis-1-hydroxy-2-naphthoate hydrate (Example 5), hydrate
[5] = listed as Crystal form A of cariprazine mono-1-hydroxy-2-naphthoate dihydrate (Example 1), dihydrate
[6] = listed as Amorphous cariprazine embonate (Example 7)

Q: With `CN(C)C(=O)NC1CCC(CCN2CCN(c3cccc(Cl)c3Cl)CC2)CC1` (centres unmarked) [cariprazine bis-1-hydroxy-2-naphthoate hydrate] as the molecule, how does the “Solubility pH 3” value [1, 4] read?
A: 36.75 μg/mL

Q: What about the “Solubility pH 4” value [1, 4] of the same molecule?
A: 65.87 μg/mL

Q: And the “Solubility pH 5” value [1, 4]?
A: 20.69 μg/mL

Q: And the “Solubility pH 6” value [1, 4]?
A: 15.24 μg/mL

Q: And the “Solubility pH 7” value [1, 4]?
A: 6.13 μg/mL

Q: What about the “Solubility pH 7.4” value [1, 4] of the same molecule?
A: 3.00 μg/mL

Q: What about the “Solubility pH 8” value [1, 4] of the same molecule?
A: 1.14 μg/mL

Q: What about the “Solubility pH 9” value [1, 4] of the same molecule?
A: 0.94 μg/mL

Q: And the “Solubility Water” value [1, 4]?
A: 55.20 µg/mL

Q: Which “Solubility pH 3” value [1] does the source give for `CN(C)C(=O)N[C@H]1CC[C@H](CCN2CCN(c3cccc(Cl)c3Cl)CC2)CC1` [cariprazine hydrochloride, reference compound] here?
A: 12302.45 μg/mL

Q: And the “Solubility pH 5” value [1]?
A: 1081.35 μg/mL

Q: What about the solubility at 24 h ([1]; pH 7, aqueous buffer, read-out: Solubility pH 7) of the same molecule?
A: 9.41 µg/mL

Q: And the solubility at 24 h ([1]; pH 7.4, aqueous buffer, read-out: Solubility pH 7.4)?
A: 2.82 µg/mL

Q: And the solubility at 24 h ([1]; pH 8, aqueous buffer, read-out: Solubility pH 8)?
A: 0.91 µg/mL

Q: What about the solubility at 24 h ([1]; pH 9, aqueous buffer, read-out: Solubility pH 9) of the same molecule?
A: 0.35 µg/mL

Q: And the “Solubility Water” value [1]?
A: 10935.14 µg/mL

Q: And the “Dissociation in aqueous media (XRPD of residue)” value [2]?
A: dissociated into cariprazine free base

Q: Which results are given for `CN(C)C(=O)NC1CCC(CCN2CCN(c3cccc(Cl)c3Cl)CC2)CC1` (centres unmarked) [Cariprazine (commercially available), Cariprazine, reference compound]?
A: Solubility pH 8 [1]: 0.4 μg/mL; Solubility Water [1]: 179.94 µg/mL (≈ 421 µM)

Q: What does the source list for `CN(C)C(=O)NC1CCC(CCN2CCN(c3cccc(Cl)c3Cl)CC2)CC1` (centres unmarked) [cariprazine mono-1-hydroxy-2-naphthoate dihydrate]?
A: Solubility pH 3 [1, 5]: 166.74 μg/mL; Solubility pH 4 [1, 5]: 72.47 μg/mL; Solubility pH 5 [1, 5]: 72.69 μg/mL; Solubility pH 6 [1, 5]: 41.95 μg/mL; Solubility pH 7 [1, 5]: 5.02 μg/mL; Solubility pH 7.4 [1, 5]: 1.51 μg/mL; Solubility pH 8 [1, 5]: 0.62 μg/mL; Solubility pH 9 [1, 5]: 0.45 μg/mL; Solubility Water [1, 5]: 60.01 µg/mL; Crystal form results, High temperature [3]: change into the crystal form C of cariprazine mono-1-hydroxy-2-naphthoate

Q: For `CN(C)C(=O)NC1CCC(CCN2CCN(c3cccc(Cl)c3Cl)CC2)CC1` (centres unmarked) [Amorphous cariprazine embonate, cariprazine embonate], which “Solubility pH 3” value [1, 6] is on record?
A: 151.2 μg/mL

Q: What about the “Solubility pH 4” value [1, 6] of the same molecule?
A: 19.1 μg/mL

Q: What about the “Solubility pH 5” value [1, 6] of the same molecule?
A: 17.7 μg/mL

Q: And the “Solubility pH 6” value [1, 6]?
A: 19.0 μg/mL

Q: And the “Solubility pH 7” value [1, 6]?
A: 18.8 μg/mL

Q: What about the “Solubility pH 7.4” value [1, 6] of the same molecule?
A: 9.9 μg/mL

Q: And the “Solubility pH 8” value [1, 6]?
A: 4.6 μg/mL

Q: What about the “Solubility pH 9” value [1, 6] of the same molecule?
A: 4.2 μg/mL

Q: And the “Solubility Water” value [1, 6]?
A: 10.4 µg/mL (≈ 24.3 µM)

Q: With `CN(C)C(=O)NC1CCC(CCN2CCN(c3cccc(Cl)c3Cl)CC2)CC1` (centres unmarked) [Crystal form C of cariprazine mono-1-hydroxy-2-naphthoate (E] as the molecule, how does the “Solubility pH 3” value [1] read?
A: 102.65 μg/mL

Q: What about the “Solubility pH 4” value [1] of the same molecule?
A: 82.64 μg/mL

Q: What about the “Solubility pH 5” value [1] of the same molecule?
A: 81.47 μg/mL

Q: And the “Solubility pH 6” value [1]?
A: 36.38 μg/mL

Q: What about the “Solubility pH 7” value [1] of the same molecule?
A: 4.79 μg/mL

Q: What about the “Solubility pH 7.4” value [1] of the same molecule?
A: 1.53 μg/mL

Q: And the “Solubility pH 8” value [1]?
A: 0.51 μg/mL

Q: And the “Solubility pH 9” value [1]?
A: 0.31 μg/mL

Q: And the “Solubility Water” value [1]?
A: 65.28 µg/mL (≈ 153 µM)
